Three compounds from US20030027819A1, “Beta-sheet mimetics and methods relating to the use thereof” (Molecumetics Ltd., priority 1996, published 2003) can be followed below.

As usually defined, the Ki is the equilibrium dissociation constant of an inhibitor or competing ligand from its target. The term IC50 denotes the concentration that gives 50% inhibition. The low end stands for greater potency, the high end for weaker potency. Broadly, the kcat is the number of substrate molecules converted per active site and unit of time at saturation.

The target of one experiment is Factor XI (Homo sapiens, UniProt P03951). Kind of experiment: Factor XI inhibition assay (Ki, Example 8). The format is biochemical. The method, then: (§1) The reaction progress curves were recorded by reading the plates, typically 60 times with 30 second to 2 minute intervals. Initial rates were determined by unweighted nonlinear least-squares fitting to a first order reaction in GraFit (Erithacus Software Limited, London, England).
Sequence of Factor XI (P03951 388-625 limits assumed): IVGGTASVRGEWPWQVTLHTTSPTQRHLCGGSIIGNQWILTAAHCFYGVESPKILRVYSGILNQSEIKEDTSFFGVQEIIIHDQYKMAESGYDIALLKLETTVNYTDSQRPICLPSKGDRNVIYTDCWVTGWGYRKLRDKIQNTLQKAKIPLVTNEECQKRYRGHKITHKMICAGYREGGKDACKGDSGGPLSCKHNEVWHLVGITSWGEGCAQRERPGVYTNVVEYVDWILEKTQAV
Sequence of Factor XI (P03951 19-387 limits assumed): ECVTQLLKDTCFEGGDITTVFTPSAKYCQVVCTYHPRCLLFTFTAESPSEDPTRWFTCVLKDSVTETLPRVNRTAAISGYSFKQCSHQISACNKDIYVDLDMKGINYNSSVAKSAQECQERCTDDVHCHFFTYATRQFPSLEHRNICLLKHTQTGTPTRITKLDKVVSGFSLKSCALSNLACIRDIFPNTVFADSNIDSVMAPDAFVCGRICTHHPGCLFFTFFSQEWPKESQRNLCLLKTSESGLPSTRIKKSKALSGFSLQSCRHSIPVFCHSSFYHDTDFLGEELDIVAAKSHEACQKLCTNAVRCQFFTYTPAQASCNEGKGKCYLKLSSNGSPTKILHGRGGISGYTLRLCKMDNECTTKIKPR
Factor XI. The same buffer was utilized in this assay as in the thrombin assay. […] From this 100 μM solution, seven serial 1:5 dilutions were made in buffer for assay.

For experiment [1], the target named is T1, Plasmin (Bos taurus, UniProt P06868). Kind of experiment: Plasmin inhibition assay (Ki, Example 5). The format is biochemical, bovine. Here is the method: as §1
T1 sequence (P06868 584-812 limits assumed): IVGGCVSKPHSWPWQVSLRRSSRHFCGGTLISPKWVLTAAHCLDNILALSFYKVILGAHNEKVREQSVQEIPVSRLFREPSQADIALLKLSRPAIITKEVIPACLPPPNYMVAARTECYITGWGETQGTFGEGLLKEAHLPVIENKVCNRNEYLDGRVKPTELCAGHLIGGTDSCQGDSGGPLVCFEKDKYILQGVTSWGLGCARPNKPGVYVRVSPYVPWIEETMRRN
T1 sequence (P06868 104-583 limits assumed): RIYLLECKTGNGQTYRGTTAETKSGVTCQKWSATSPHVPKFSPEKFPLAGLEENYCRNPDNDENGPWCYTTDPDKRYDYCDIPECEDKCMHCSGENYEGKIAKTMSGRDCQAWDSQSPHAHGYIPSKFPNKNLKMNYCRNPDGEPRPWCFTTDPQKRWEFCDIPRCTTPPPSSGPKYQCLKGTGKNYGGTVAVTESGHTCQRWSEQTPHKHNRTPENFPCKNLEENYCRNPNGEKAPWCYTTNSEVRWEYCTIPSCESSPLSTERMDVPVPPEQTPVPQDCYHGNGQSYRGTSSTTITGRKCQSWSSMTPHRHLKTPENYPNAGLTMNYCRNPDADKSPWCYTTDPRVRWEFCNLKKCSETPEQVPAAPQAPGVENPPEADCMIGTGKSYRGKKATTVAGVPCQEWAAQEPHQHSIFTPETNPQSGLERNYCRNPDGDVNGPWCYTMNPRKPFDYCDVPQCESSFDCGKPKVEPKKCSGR
The target in experiment [2] is T2, urokinase (Homo sapiens, UniProt P00749). Kind of experiment: Urokinase inhibition assay (Ki, Example 5). The format is biochemical.
Experiment [3] has as its target T3, Tissue Plasminogen Activator (t-PA) (Homo sapiens, UniProt P00750). Kind of experiment: t-PA inhibition assay (Ki, Example 5). As to conditions: read-out: Ki t-PA. The format is biochemical. Here is the method: as §1
The target in the next experiment is T4, trypsin (Bos taurus, UniProt P00760).
T4 sequence (P00760 24-246): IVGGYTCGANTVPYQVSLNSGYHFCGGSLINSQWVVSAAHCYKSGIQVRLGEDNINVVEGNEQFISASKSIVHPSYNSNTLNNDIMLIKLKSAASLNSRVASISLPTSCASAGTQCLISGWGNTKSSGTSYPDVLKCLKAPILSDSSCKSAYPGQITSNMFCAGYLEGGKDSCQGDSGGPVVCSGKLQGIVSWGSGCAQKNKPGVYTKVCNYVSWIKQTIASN
Kind of experiment: Trypsin inhibition assay (Ki, Example 5). The format is biochemical, bovine. The method, then:
as §1

The target in the next experiment is tryptase (Homo sapiens, UniProt Q15661). Kind of experiment: Tryptase inhibition assay (Ki, Example 5). The format is biochemical.
Sequence of tryptase (Q15661 31-275): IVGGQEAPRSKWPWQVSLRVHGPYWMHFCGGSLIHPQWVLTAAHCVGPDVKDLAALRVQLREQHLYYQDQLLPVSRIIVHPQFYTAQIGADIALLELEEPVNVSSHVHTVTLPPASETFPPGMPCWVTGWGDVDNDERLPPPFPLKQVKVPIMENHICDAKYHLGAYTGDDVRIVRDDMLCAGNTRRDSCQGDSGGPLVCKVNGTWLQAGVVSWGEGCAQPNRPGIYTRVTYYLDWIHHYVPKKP
In experiment [4] the target is Activated Protein C (aPC) (Homo sapiens, UniProt P04070). Kind of experiment: Activated Protein C inhibition assay (Ki, Example 5). The format is biochemical.
Sequence of Activated Protein C (aPC) (P04070 212-461 limits assumed): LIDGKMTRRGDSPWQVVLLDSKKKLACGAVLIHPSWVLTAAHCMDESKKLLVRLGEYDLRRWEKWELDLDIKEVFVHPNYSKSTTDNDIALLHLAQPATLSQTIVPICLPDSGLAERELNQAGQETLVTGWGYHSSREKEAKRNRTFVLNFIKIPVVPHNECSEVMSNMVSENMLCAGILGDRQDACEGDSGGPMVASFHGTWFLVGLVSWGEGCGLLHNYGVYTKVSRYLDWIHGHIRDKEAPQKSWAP
Sequence of Activated Protein C (aPC) (P04070 43-197 limits assumed): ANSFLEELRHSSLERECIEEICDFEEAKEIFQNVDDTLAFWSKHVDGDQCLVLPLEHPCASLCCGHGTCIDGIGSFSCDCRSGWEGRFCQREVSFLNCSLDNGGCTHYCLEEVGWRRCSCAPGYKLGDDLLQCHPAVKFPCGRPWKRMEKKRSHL
The next experiment has as its target factor X (Bos taurus, UniProt P00743). Kind of experiment: Factor X inhibition assay (Ki, Example 5), bovine plasma enzyme. The format is biochemical. The following applies: bovine plasma enzyme (Example 5 protocol). Here is the method:
The hydrolysis of chromogenic substrates was monitored at 405 nm. The reaction progress curves were recorded by reading the plates, typically 60 times with 30 second to 2 minute intervals. Initial rates were determined by unweighted nonlinear least-squares fitting to a first order reaction in GraFit (Erithacus Software Limited, London, England).
Buffer and substrate were the same as used for thrombin assay. A 1:100 dilution was made in the pH8.0 tris buffer to serve as the first point. Seven more dilutions from the first were made for the assay.

The target in the next experiment is factor VII (Homo sapiens, UniProt P08709). Briefly: Factor VII inhibition assay (Ki, Example 5). The format is biochemical. Here is the method:
as §1
From this concentration point seven more sequential dilutions were made for the assay.

A further experiment deals with thrombin (Bos taurus, UniProt P00735). Briefly: Thrombin inhibition assay (Ki, Example 5). The format is biochemical, bovine. Details: thrombin; bovine plasma; 0.66; from tissue; host or cells: bovine plasma. Here is the method:
as §1
Seven sequential dilutions were made from the first point for the assay.

In the next experiment the target is T5, bovine factor Xa (Bos taurus, UniProt P00743).
T5 construct: 25 nM of bovine factor Xa (from Sigma); purchased Sigma
T5 sequence (P00743 234-492 limits assumed): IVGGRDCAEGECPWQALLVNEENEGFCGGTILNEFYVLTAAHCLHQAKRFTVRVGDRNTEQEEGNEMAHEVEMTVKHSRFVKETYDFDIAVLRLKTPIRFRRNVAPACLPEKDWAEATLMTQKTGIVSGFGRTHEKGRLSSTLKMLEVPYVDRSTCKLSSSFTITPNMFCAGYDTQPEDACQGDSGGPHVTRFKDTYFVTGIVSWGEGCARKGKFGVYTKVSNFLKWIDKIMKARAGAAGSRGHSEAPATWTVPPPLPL
T5 sequence (P00743 41-180 limits assumed): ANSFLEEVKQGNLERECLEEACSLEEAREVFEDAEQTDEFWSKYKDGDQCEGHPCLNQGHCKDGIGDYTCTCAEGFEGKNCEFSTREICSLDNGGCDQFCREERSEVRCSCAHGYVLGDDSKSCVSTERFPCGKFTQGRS
Kind of experiment: Factor X inhibition assay (IC50, Example 4). The format is biochemical. Here is the method:
(§2) This solution (2.05 mM) served as the stock solution for all the inhibition assays. The hydrolysis of chromogenic substrates was monitored at 405 nm. The reaction progress curves were recorded by reading the plates typically 90 times with 30 seconds to 2 minute intervals. The initial rate were determined by unweighted nonlinear least-squares fitting to a first order reaction in GraFit.
In the Factor X assay, buffer and substrate are the same as used for thrombin assay. A 1:100 dilution was made into pH 8.4 Tris buffer to serve as the first point. Seven dilutions with a dilution factor of 2 were made. The assay protocol is the same as for thrombin except 25 nM of bovine factor Xa (from Sigma) in pH 8.4 Tris buffer was used instead of thrombin.

In a further experiment the test system is control plasma. Briefly: Prothrombin time (PT) in control plasma. The format is biochemical. The method, then: Then 200 μl of prewarmed (at 37° C. for ˜10 minutes) thromboplastin with calcium (from Sigma) was rapidly added into the plasma sample.
Experiment [5] deals with T1, Plasmin. Briefly: Plasmin inhibition assay (IC50, Example 4). The format is biochemical. Here is the method:
as §2
For dilutions of structure (13b) (see urokinase assay).

In experiment [6] the target is T3, Tissue Plasminogen Activator (t-PA). Briefly: Tissue plasminogen activator inhibition assay (IC50, Example 4). The format is biochemical. The method, then:
as §2
Buffer, substrate and the dilution scheme of structure (13b) were the same as utilized for Factor VII assay.

The next experiment concerns the target T6, bovine trypsin (Bos taurus, UniProt P00760).
T6 construct: purchased Sigma
T6 sequence (P00760 24-246): T4 sequence (P00760 24-246)
Briefly: Trypsin inhibition assay (IC50, Example 4). The format is biochemical. The method, then: as §2
In the trypsin assay, pH 7.8 Tris (0.10 M Tris and 0.02 M CaCl2) was utilized as the buffer. BAPNA (from Sigma) was used at 1 mg/ml in 1% DMSO (v/v) deionized water solution as substrate. The same dilutions of structure (13b) were made as for Factor VII assay.

Experiment [7] addresses T2, urokinase. Briefly: Urokinase inhibition assay (IC50, Example 4). The format is biochemical. Also on record: purchased Sigma. The method, then: as §2
In the urokinase assay, buffer was pH 8.8 0.05 M Tris and 0.05 M NaCl in deionized water. S-2444 (from Sigma), pyroGlu-Gly-Arg-pNA at 0.5 mM in water was utilized as substrate. The same dilution procedure was used as for Factor VII and Factor X. Assay protocol is the same as for thrombin except 18.5 nM of human urokinase (from Sigma) was utilized.

The target in a further experiment is T7, FVIIa and TF complex (Homo sapiens, UniProt P08709).
T7 construct: 50 μl of 16 nM FVIIa and TF complex solution
T7 sequence (P08709 213-466 limits assumed): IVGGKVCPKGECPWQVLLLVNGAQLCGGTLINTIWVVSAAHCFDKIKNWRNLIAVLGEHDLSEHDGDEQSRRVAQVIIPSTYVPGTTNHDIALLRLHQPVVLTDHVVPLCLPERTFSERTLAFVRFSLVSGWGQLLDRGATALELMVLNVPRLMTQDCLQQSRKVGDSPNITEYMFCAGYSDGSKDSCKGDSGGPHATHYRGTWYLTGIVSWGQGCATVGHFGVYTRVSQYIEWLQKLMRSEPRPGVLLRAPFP
T7 sequence (P08709 61-212 limits assumed): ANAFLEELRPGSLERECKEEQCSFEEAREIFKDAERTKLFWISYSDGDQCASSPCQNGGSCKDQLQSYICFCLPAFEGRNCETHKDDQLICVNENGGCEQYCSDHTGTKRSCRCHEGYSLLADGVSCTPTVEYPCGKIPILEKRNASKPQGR
T7 sequence (P13726 33-295 partner): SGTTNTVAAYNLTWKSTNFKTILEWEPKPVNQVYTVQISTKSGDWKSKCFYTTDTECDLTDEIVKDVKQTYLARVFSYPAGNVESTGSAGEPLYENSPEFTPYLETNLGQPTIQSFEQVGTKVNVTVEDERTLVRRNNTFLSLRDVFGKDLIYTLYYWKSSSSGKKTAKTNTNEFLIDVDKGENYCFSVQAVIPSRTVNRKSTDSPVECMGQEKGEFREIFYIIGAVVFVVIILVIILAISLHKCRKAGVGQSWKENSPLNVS
Briefly: Factor VII inhibition assay (IC50, Example 4). The format is biochemical. Here is the method:
as §2
In the Factor VII assay, S-2288 (from Pharmacia), D-Ile-Pro-Arg-pNA was used at […] in deionized water as substrate. […] This dilution served as the first point of the inhibitor (20 μM). From this concentration point 6 more sequential dilutions were made with a dilution factor of 2. 50 μl of 16 nM FVIIa and TF complex solution and 40 μl of the inhibitor solutions were added into each well, the mixtures were incubated for 20 minutes before 10 μl of 20 mM S-2288 was added.

For experiment [8], the target named is T8, human Factor VIIa (FVIIa) and human tissue factor (TF) (Homo sapiens, UniProt P08709).
T8 construct: 10 μl of 20 μM human Factor VIIa (FVIIa)
T8 sequence (P08709 213-466 limits assumed): as the sequence (P08709 213-466 limits assumed) above
T8 sequence (P08709 61-212 limits assumed): as the sequence (P08709 61-212 limits assumed) above
T8 sequence (P13726 33-295 partner): as the sequence (P13726 33-295 partner) above
Briefly: Factor VII assay, hydrolysis of structure (11b) as proteolytic substrate. The format is biochemical. As to conditions: ratio of kcat/KM. Here is the method: (§3) Both the thrombin and Factor VII assays of this experiment were carried out at 37° C. using a Hitachi UV/Vis spectrophotometer (model U-3000). Structure (11b) was dissolved in deionized water. The concentration was determined from the absorbance at 342 nm. […] Initial velocities were calculated from the initial linear portion of the reaction progress curve. Kinetic parameters were determined by unweighted nonlinear least-squares fitting of the simple Michaelis-Menten equation to the experimental data using GraFit (Version 3.0, Erithacus Software Limited).
For the Factor VII assay, pH 8.0 Tris buffer (0.05 M Tris, 5 mM CaCl2, 0.15 M NaCl, 0.1% TWEEN 20, 0.1% BSA) was used. 10 μl of 20 μM human Factor VIIa (FVIIa) and 22 μM of human tissue factor (TF) was brought to assay buffer to make 160 nM FVIIa and TF solutions, respectively. […] The initial 3 minutes reaction progress curves were recorded. […] The kcat/KM was calculated from the slope and found to be 17,500 M^−1s^−1.
(§4) In both the thrombin and Factor VII assay of this experiment, (D)FPR-PNA was run as a control.

In the next experiment the target is T9, bovine thrombin (Bos taurus, UniProt P00735).
T9 construct: 6.4 NIH units of bovine thrombin (from Sigma); purchased Sigma
Kind of experiment: Thrombin assay, hydrolysis of structure (11b) as proteolytic substrate. The format is biochemical. The method, then:
as §3
For the thrombin assay, experiments were performed in pH 8.4 Tris buffer (Tris, 0.05M; NaCl, 0.15M). 6.4 NIH units of bovine thrombin (from Sigma) were dissolved into 10 ml of the assay buffer to yield 10 nM thrombin solution. […] The first two minutes of the reactions were recorded for initial velocity determination.
as §4

The structures appear in SMILES notation. Where “and” joins values, the source holds several entries; their conditions need not be identical. Equal entries are not always repeated.

T3 sequence (P00750 36-562): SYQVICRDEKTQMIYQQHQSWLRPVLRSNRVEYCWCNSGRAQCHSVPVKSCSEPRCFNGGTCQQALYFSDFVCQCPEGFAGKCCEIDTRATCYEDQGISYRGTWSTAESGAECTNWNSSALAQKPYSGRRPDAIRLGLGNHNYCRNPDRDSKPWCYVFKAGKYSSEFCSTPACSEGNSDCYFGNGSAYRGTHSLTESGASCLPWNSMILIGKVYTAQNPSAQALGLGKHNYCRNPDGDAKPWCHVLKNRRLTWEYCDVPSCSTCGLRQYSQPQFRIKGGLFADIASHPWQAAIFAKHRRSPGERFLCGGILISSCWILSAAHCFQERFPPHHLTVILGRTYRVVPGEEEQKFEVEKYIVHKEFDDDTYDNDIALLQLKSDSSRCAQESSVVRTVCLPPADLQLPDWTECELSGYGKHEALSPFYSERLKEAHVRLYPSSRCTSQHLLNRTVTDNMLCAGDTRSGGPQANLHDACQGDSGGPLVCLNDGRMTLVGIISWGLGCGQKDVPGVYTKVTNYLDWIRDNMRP
Sequence of factor VII (P08709 213-466 limits assumed): as the sequence (P08709 213-466 limits assumed) above
Sequence of factor VII (P08709 61-212 limits assumed): as the sequence (P08709 61-212 limits assumed) above
Sequence of factor VII (P13726 33-295 partner): as the sequence (P13726 33-295 partner) above
Sequence of factor X (P00743 234-492 limits assumed): as the sequence (P00743 234-492 limits assumed) above
Sequence of factor X (P00743 41-180 limits assumed): as the sequence (P00743 41-180 limits assumed) above

Take `N=C(N)NCCC[C@H](NC(=O)[C@@H]1CC[C@@H]2CC[C@@](N)(Cc3ccccc3)C(=O)N21)C(=O)c1nc2ccccc2s1` [Structure 29b]: the Ki on Factor XI was 75.3 nM; at Plasmin [1], 251 nM; at urokinase [2] it was 335 nM; in experiment [3], 92.9 nM; at trypsin, 0.2 nM and 0.23 nM; at tryptase, 9 nM. Further, the inhibitory constant (Ki) was 1250 nM in experiment [4], 17 nM on factor X, 200 nM at factor VII and 0.085 nM at thrombin.

Take `N=C(N)NCCC[C@H](NC(=O)[C@@H]1CCCN1C(=O)[C@H](N)Cc1ccccc1)C(=O)CCl` [PPACK, reference compound]: the IC50 against bovine factor Xa was 165 nM; on Plasmin [5] it was 699 nM; in experiment [6] it was 106 nM; against bovine trypsin it was 212 nM; against urokinase [7] it was […]; against FVIIa and TF complex, 200 nM. The PT with control plasma (Concentration 500 pM) was 15 s; in the experiment on control plasma (Concentration 1 nM) it was 18 s; with control plasma (Concentration 10 nM), 22 s; with control plasma (Concentration 20 nM) it was 25 s; in the experiment with control plasma (Concentration 40 nM), 28 s; with control plasma (Concentration 60 nM), 30 s. Also, the PT in the experiment with control plasma (Concentration 80 nM) was 31 s.

Regarding `N=C(N)NCCC[C@H](NC(=O)[C@@H]1CCN2CC[C@@](N)(Cc3ccccc3)C(=O)N12)C(=O)Nc1ccc([N+](=O)[O-])cc1` [Structure 11b], the “Activity compared to the control (D)FPR-PNA” value in experiment [8] is 1.38; at bovine thrombin (thrombin, ratio of kcat/KM), 0.76. Moreover, the kcat at bovine thrombin (substrate hydrolysis, pH 8.4 Tris, 37° C.) came to 50 s⁻¹.
